A word on the EC50: it is the concentration at which the effect is half-maximal. A low value points to a more potent agent.

In this assay the target is T1, human liver GK (Homo sapiens, UniProt P35557).
T1 construct: GST (glutathione S-transferase) (N); made in house; host or cells: E. coli
T1 sequence (P35557 1-466 isoform P35557-2): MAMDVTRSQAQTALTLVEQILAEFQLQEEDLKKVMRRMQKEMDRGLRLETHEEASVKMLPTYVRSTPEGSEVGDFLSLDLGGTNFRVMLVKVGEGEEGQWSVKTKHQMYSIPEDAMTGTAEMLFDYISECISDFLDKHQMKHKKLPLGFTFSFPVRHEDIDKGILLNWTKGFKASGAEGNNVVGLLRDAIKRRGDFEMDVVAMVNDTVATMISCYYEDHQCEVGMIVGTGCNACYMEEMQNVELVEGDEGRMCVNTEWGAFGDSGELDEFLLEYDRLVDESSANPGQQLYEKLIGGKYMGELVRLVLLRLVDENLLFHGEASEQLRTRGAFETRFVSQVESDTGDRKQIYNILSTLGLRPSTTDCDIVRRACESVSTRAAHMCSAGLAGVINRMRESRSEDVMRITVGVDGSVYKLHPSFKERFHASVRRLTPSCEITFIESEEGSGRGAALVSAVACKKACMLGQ
Description: GK activation test. In kind it is biochemical. The settings on record: test compound concentration needed to activate 50% of maximum activation ability; 4 mM 14C-labeled glucose, 2 mM ATP, room temperature, 20 minutes. The method, then:
The GK activation test for the test compounds was performed by the method of Irwin A. Rose et al. (J. Biol. Chem. 1964 January; 239:12-7) with partial modifications.
The enzyme source used in this assay, human liver GK, was expressed in E. coli as a fusion protein with GST (glutathione S-transferase) added to the amino terminus and was purified using Glutathione Sepharose 4B (Amersham Biosciences).
The test was carried out using flat-bottom 96-well plates (Sumitomo Bakelite Co., Ltd.). A solution of the test compound in dimethyl sulfoxide (DMSO) and DMSO as a control were added to each well of the plates at a final DMSO concentration of 1%. 25 mM Hepes-KOH (pH=7.1), 25 mM KCl, 2 mM MgCl2, 2 mM ATP, 4 mM ^14C-labeled glucose (Muromachi Yakuhin) and 1 mM DTT (dithiothreitol) were further added at the indicated final concentrations, respectively. Finally, human liver GK was added at 0.24 microgram per well and the reaction was started. The reaction was carried out at room temperature.
After 20 minutes, AG1-X4 resin (BioRad) suspended in 25 mM Hepes-KOH (pH=7.1) was added and the reaction product, labeled glucose 6-phosphate, was allowed to bind thereto. The whole volume was transferred to MultiScreen plates (Millipore) and the resin was washed with water. Thereafter, the labeled glucose 6-phosphate binding to the resin was eluted with a 0.5 M NaCl solution. The labeling activity of the eluted labeled glucose 6-phosphate was measured as an index of GK activity.
The GK activity maximally activated by the test compound was described as maximum activation ability, and the test compound concentration needed to activate 50% of that ability was described as EC50.

In the case of `COc1ccc(C(C[C@H]2CCC(=O)N2)c2ccc(C(C)(C)C)cc2)[nH]c1=O` (single isomer, unassigned) [Example 4-245], the concentration for a half-maximal effect (EC50) was 3 to 10 µM.

For the compound `CC(C)(C)c1ccc(C(C[C@H]2CCC(=O)N2)c2ccc(OC(F)F)c(=O)[nH]2)cc1` (single isomer, unassigned) [Example 4-246], the EC50 was in the range of 0.5 to 3 µM.

Take `CC(C)(C)c1ccc(C(C[C@H]2CCC(=O)N2)c2ccc(OC(F)F)c(=O)[nH]2)cc1` (single isomer, unassigned) [Example 4-247]: the concentration for a half-maximal effect (EC50) lay in the range of 3 to 10 µM.

`O=C1CC[C@H](CC(c2ccc(C(F)(F)F)cc2)c2ccc(C3CC3)c(=O)[nH]2)N1` (single isomer, unassigned) [Example 4-248] returned an EC50 of 0.5 to 3 µM.

The compound `O=C1CC[C@H](CC(c2ccc(C(F)(F)F)cc2)c2ccc(C3CC3)c(=O)[nH]2)N1` (single isomer, unassigned) [Example 4-249] gave an EC50 of 3 to 10 µM.

`O=C1CC[C@H](CC(c2ccc(O)c(Cl)c2)c2ccc(C3CC3)c(=O)[nH]2)N1` (single isomer, unassigned) [Example 4-250] came in with an EC50 of 0.5 to 3 µM.

`O=C1CC[C@H](CC(c2ccc(O)c(Cl)c2)c2ccc(C3CC3)c(=O)[nH]2)N1` (single isomer, unassigned) [Example 4-251] showed an EC50 of 3 to 10 µM.

For the compound `O=C1CC[C@H](CC(c2ccc(Cl)cc2)c2ccc(C3CC3)c(=O)[nH]2)N1` (single isomer, unassigned) [Example 4-252], the EC50 lay in the range of 0.5 to 3 µM.

With `O=C1CC[C@H](CC(c2ccc(C(F)(F)F)c(Cl)c2)c2ccc(C3CC3)c(=O)[nH]2)N1` (single isomer, unassigned) [Example 4-254], the EC50 is 0.01 to 0.5 µM.

Regarding `O=C1CC[C@H](CC(c2ccc(C(F)(F)F)c(Cl)c2)c2ccc(C3CC3)c(=O)[nH]2)N1` (single isomer, unassigned) [Example 4-255], the half-maximal effective concentration (EC50) lay within 3 to 10 µM.

The compound `Cc1ccc(C(C[C@H]2CCC(=O)N2)c2ccc(C3CC3)c(=O)[nH]2)cc1` (single isomer, unassigned) [Example 4-294] came in with an EC50 of 0.5 to 3 µM.

In turn, `CC(C)Oc1ccc(C(C[C@H]2CCC(=O)N2)c2ccc(Cl)c(=O)[nH]2)cc1Cl` (single isomer, unassigned) [Example 4-296] registered an EC50 of 0.5 to 3 µM.

`CC(C)Oc1ccc(C(C[C@H]2CCC(=O)N2)c2ccc(Cl)c(=O)[nH]2)cc1Cl` (single isomer, unassigned) [Example 4-297] showed an EC50 of 3 to 10 µM.

`Cc1cc(C(C[C@H]2CCC(=O)N2)c2ccc(C3CC3)c(=O)[nH]2)ccc1S(=O)(=O)C1CC1` (single isomer, unassigned) [Example 4-298] yielded an EC50 of 0.01 to 0.5 µM.

As for `Cc1cc(C(C[C@H]2CCC(=O)N2)c2ccc(C3CC3)c(=O)[nH]2)ccc1S(=O)(=O)C1CC1` (single isomer, unassigned) [Example 4-299], the EC50 lay within 3 to 10 µM.

The compound `CCc1ccc(C(C[C@H]2CCC(=O)N2)c2ccc(C3CC3)c(=O)[nH]2)cc1` (single isomer, unassigned) [Example 4-302] yielded a half-maximal effective concentration (EC50) of 0.01 to 0.5 µM.

As for `CCc1ccc(C(C[C@H]2CCC(=O)N2)c2ccc(C3CC3)c(=O)[nH]2)cc1` (single isomer, unassigned) [Example 4-303], the EC50 lay in the range of 3 to 10 µM.

Regarding `O=C1CC[C@H](CC(c2ccc(S(=O)(=O)C3CC3)c(Cl)c2)c2ccc(Cl)c(=O)[nH]2)N1` (single isomer, unassigned) [Example 4-304], the half-maximal effective concentration (EC50) was 0.01 to 0.5 µM.

For `O=C1CC[C@H](CC(c2ccc(S(=O)(=O)C3CC3)c(Cl)c2)c2ccc(Cl)c(=O)[nH]2)N1` (single isomer, unassigned) [Example 4-305], the EC50 is 3 to 10 µM.

Compound `O=C1CC[C@H](CC(c2ccc(S(=O)(=O)C3CC3)cc2)c2ccc(C3CC3)c(=O)[nH]2)N1` (single isomer, unassigned) [Example 4-306] displayed an EC50 of 0.01 to 0.5 µM.

Compound `O=C1CC[C@H](CC(c2ccc(S(=O)(=O)C3CC3)cc2)c2ccc(C3CC3)c(=O)[nH]2)N1` (single isomer, unassigned) [Example 4-307] displayed a concentration giving a half-maximal response (EC50) of 3 to 10 µM.

The values above are taken from patent US8822503B2, “2-pyridone compounds” (Taisho Pharmaceutical Co., Ltd, priority 2009, dated 2014).
